Reference: patent US20070270421A1, “Novel pyridine Derivative and Pyrimidine Derivative (1)” (priority 2004, published 2007)

Biological target: T1, HGFR (His6-HGFR cytoplasmic domain) (Homo sapiens, UniProt P08581)
T1 construct: made in house; host or cells: Spodoptera frugiperda Sf9 insect cells (baculovirus, pFastBac-HT)
Test: Inhibitory activity against HGFR tyrosine kinase activity (HTRF)
Format: biochemical
Conditions: biotin-poly(GT), ATP, 30° C. 10 min, read-out: IC50 (concentration necessary to inhibit HGFR kinase activity by 50%)
Source text: The cytoplasmic domain of HGFR (Genbank Accession No. J02958) is a 1.3 kb DNA fragment beginning with Lys974 and including a stop codon, and described by Park et al. (Proc. Natl. Acad. Sci. U.S.A. 84(18), 6379-6383, 1987). The DNA fragment was isolated from the human placental cDNA library (purchased from Clontech) by PCR (TaKaRa Ex Taq™ Kit, purchased from TaKaRa) using two kinds of primers (SEQ ID NO: 1, 5′-[…]-3′ and SEQ ID NO: 2, 5′-[…]-3′, purchased from Invitrogen). The DNA fragment was cloned into a baculovirus transplace vector (pFastBac™-HT (purchased from GIBCO BRL)) to produce a recombinant construct. The construct was transfected into insect cells (Spodoptera frugiperda 9 (Sf9)) to produce a solution of HGFR transfected baculovirus (preparation of a recombinant baculovirus can be found in the standard text (Bac-to-Bac Baculovirus Expression System (GIBCO BRL)). The cloning of the other receptor tyrosine kinases and preparation of the recombinant baculovirus solutions were performed using a cytoplasmic fragment starting from Lys791 (VEGFR2, Genbank Accession No. L04947), a cytoplasmic fragment starting from Lys398 (FGFR1, Genbank Accession No. X52833) and a cytoplasmic fragment starting from Lys558 (PDGFRβ, Genbank Accession No. M21616) in stead of HGFR in the above method. EGFR was purchased from Sigma (Production No. E-2645).
To the suspension of Sf9 cells (3×10^8 cells) in SF-900II medium (purchased from Invitrogen) containing 2% FBS was added a solution of HGFR transfected baculovirus above (4 ml), followed by a shaking culture at 27° C. for 48 hrs. The cells infected with the HGFR transfected baculovirus were centrifuged at 1,000 rpm, 4° C. for 5 min to remove the supernatant. The precipitated infected cells were suspended in 80 ml of ice-cold PBS, and centrifuged at 1,000 rpm, 4° C. for 5 min to remove the supernatant. The precipitated infected cells were suspended in 40 ml of ice-cold Lysis Buffer (50 mM Tris-HCl (pH 8.5), 5 mM 2-mercaptoethanol, 100 mM KCl, 1 mM PMSF and 1% (v/v) NP-40). The suspension was centrifuged at 12,000 rpm, 4° C. for 30 min to provide a supernatant.
The supernatant was loaded onto an Ni-NTA agarose column (3 ml, purchased from Qiagen) equilibrated with 30 ml of Buffer A (20 mM Tris-HCl (pH 8.5), 5 mM 2-mercaptoethanol, 500 mM KCl, 20 mM imidazole and 10% (v/v) glycerol). The column was washed with 30 ml of Buffer A, 6 ml of Buffer B (20 mM Tris-HCl (pH 8.5), 5 mM 2-mercaptoethanol, 1 M KCl, and 10% (v/v) glycerol) and 6 ml of Buffer A in this order. Then, the column was eluted with 6 ml of Buffer C (20 mM Tris-HCl (pH 8.5), 5 mM 2-mercaptoethanol, 100 mM KCl, 100 mM imidazole, and 10% (v/v) glycerol) to provide a fraction. The fraction was entrapped in a dialysis membrane (purchased from Spectrum Laboratories), dialyzed at 4° C. overnight with 1 L of dialysis buffer (20 mM Tris-HCl (pH 7.5), 10% (v/v) glycerol, 1 mM dithiothreitol, 0.1 mM Na3VO4 and 0.1 mM EGTA), and stored at −80° C. until used. An aliquot of the dialyzed fraction was subjected to SDS electrophoresis, and then a recombinant protein (His6-HGFR, the HGFR cytoplasmic domain fused with six histidine at the N terminus) detected at a molecular weight of about 60 kDa when stained with Coomassie Brilliant Blue, was determined with regard to protein content using BSA (purchased from Sigma) as a standard. The VEGFR2 cytoplasmic domain, the FGFR1 cytoplasmic domain, and the PDGFRβ cytoplasmic domain were fused with six histidine at the N terminus by the similar method to produce respective recombinant proteins (His6-VEGFR2, His6-FGFR1, and His6-PDGFRβ). […]

T1 sequence (P08581 956-1390 limits assumed): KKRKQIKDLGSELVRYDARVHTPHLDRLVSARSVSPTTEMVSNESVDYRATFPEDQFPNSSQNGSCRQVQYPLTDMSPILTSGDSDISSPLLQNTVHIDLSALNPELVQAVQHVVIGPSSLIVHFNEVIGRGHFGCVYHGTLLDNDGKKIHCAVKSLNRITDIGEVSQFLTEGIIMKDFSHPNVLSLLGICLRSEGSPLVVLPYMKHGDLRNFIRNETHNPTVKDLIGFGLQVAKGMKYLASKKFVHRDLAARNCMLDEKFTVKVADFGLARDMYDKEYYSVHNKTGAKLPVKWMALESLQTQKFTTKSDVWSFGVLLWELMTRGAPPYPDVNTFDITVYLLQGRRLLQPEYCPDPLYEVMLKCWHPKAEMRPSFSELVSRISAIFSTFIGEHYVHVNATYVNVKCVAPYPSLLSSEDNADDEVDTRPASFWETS

CN1CC(N2CCN(C(=O)Nc3cc(Oc4ccc(NC(=S)NC(=O)Cc5ccc(F)cc5)cc4F)ncn3)CC2)C1 [Example 196]
IC50: 57 nM

CN1CC[C@H](N(C)C(=O)Nc2cc(Oc3ccc(NC(=S)NC(=O)Cc4ccc(F)cc4)cc3F)ncn2)C1 [Example 201, 3-[6-(2-Fluoro-4-{3-[2-(4-fluorophenyl)acetyl]thioureido}phenoxy)pyrimidin-4-yl]-1-methyl-1-[(3S)-1-methylpyrrolidin-3-yl]urea]
IC50: 50 nM

CN(C)C1CN(C(=O)Nc2cc(Oc3ccc(NC(=S)NC(=O)Cc4ccc(F)cc4)cc3F)ncn2)C1 [Example 208, 3-Dimethylaminoazetidine-1-carboxylic acid [6-(2-fluoro-4-{3-[2-(4-fluorophenyl)acetyl]thioureido}phenoxy)pyrimidin-4-yl]amide]
IC50: 50 nM

CN(C)C[C@H]1CCN(C(=O)Nc2cc(Oc3ccc(NC(=S)NC(=O)Cc4ccc(F)cc4)cc3F)ncn2)C1 [Example 209, 4-{[(3R)-3-(Dimethylaminomethyl)pyrrolidin-1-yl]carbonylamino}-6-(2-fluoro-4-{3-[2-(4-fluorophenyl)acetyl]thioureido}phenoxy)pyrimidine]
IC50: 65 nM

CN(C)C[C@@H]1CCN(C(=O)Nc2cc(Oc3ccc(NC(=S)NC(=O)Cc4ccc(F)cc4)c(F)c3)ccn2)C1 [Example 219, (3S)-3-Dimethylaminomethylpyrrolidine-1-carboxylic acid [4-(3-fluoro-4-{3-[2-(4-fluorophenyl)acetyl]thioureido}phenoxy)pyridin-2-yl]amide]
IC50: 42 nM

CN(C)CCCN1CCC(N(C)C(=O)Nc2cc(Oc3ccc(NC(=S)NC(=O)Cc4ccc(F)cc4)cc3F)ncn2)CC1 [Example 221, 1-[1-(3-Dimethylaminopropyl)piperidin-4-yl]-3-[6-(2-fluoro-4-{3-[2-(4-fluorophenyl)acetyl]thioureido}phenoxy)pyrimidin-4-yl]-1-methylurea]
IC50: 170 nM

CN(C)CCN1CCC(N(C)C(=O)Nc2cc(Oc3ccc(NC(=S)NC(=O)Cc4ccccc4)cc3F)ccn2)CC1 [Example 223, 1-[1-(2-Dimethylaminoethyl)piperidin-4-yl]-3-{4-[2-fluoro-4-(3-phenylacetylthioureido)phenoxy]pyridin-2-yl}-1-methylurea]
IC50: 58 nM

CN(C)CCN1CCC(N(C)C(=O)Nc2cc(Oc3ccc(NC(=S)NC(=O)Cc4ccc(F)cc4)cc3F)ccn2)CC1 [Example 224, 1-[1-(2-Dimethylaminoethyl)piperidin-4-yl]-3-[4-(2-fluoro-4-{3-[2-(4-fluorophenyl)acetyl]thioureido}phenoxy)pyridin-2-yl]-1-methylurea]
IC50: 88 nM

CN(C)CCCN1CCC(N(C)C(=O)Nc2cc(Oc3ccc(NC(=S)NC(=O)Cc4ccc(F)cc4)cc3F)ccn2)CC1 [Example 225, 1-[1-(3-Dimethylaminopropyl)piperidin-4-yl]-3-[4-(2-fluoro-4-{3-[2-(4-fluorophenyl)acetyl]thioureido}phenoxy)pyridin-2-yl]-1-methylurea]
IC50: 79 nM

CN(C)[C@@H]1CCN(C(=O)Nc2cc(Oc3ccc(NC(=S)NC(=O)Cc4ccccc4)cc3F)ccn2)C1 [Example 245, 2-{[(3R)-3-Dimethylaminopyrrolidin-1-yl]carbonylamino}-4-{2-fluoro-4-[3-(2-phenylacetyl)thioureido]phenoxy}pyridine]
IC50: 81 nM

CN(C)[C@H]1CCN(C(=O)Nc2cc(Oc3ccc(NC(=S)NC(=O)Cc4ccccc4)cc3F)ccn2)C1 [Example 246, 2-{[(3S)-3-Dimethylaminopyrrolidin-1-yl]carbonylamino}-4-{2-fluoro-4-[3-(2-phenylacetyl)thioureido]phenoxy}pyridine]
IC50: 79 nM

CN(C)[C@H]1CCN(C(=O)Nc2cc(Oc3ccc(NC(=O)NC(=O)Cc4ccccc4)cc3F)ccn2)C1 [Example 250, 2-{[(3S)-3-Dimethylaminopyrrolidin-1-yl]carbonylamino}-4-{2-fluoro-4-[3-(2-phenylacetyl)ureido]phenoxy}pyridine]
IC50: 68 nM

CN(C)[C@H]1CCN(C(=O)Nc2cc(Oc3ccc(NC(=S)NC(=O)Cc4ccc(F)cc4)cc3F)ncn2)C1 [Example 254, 4-{[(3S)-3-Dimethylaminopyrrolidin-1-yl]carbonylamino}-6-(2-fluoro-4-{3-[2-(4-fluorophenyl)acetyl]thioureido}phenoxy)pyrimidine]
IC50: 83 nM

O=C(Cc1ccccc1)NC(=S)Nc1ccc(Oc2ccnc(NC(=O)N3CCC(N4CCOCC4)CC3)c2)c(F)c1 [Example 258, 4-{2-Fluoro-4-[3-(2-phenylacetyl)thioureido]phenoxy}-2-{[4-(morpholin-4-yl)piperidin-1-yl]carbonylamino}pyridine]
IC50: 100 nM

O=C(Cc1ccccc1)NC(=S)Nc1ccc(Oc2ccnc(NC(=O)N3CC(N4CCCC4)C3)c2)c(F)c1 [Example 261, 3-(Pyrrolidin-1-yl)azetidine-1-carboxylic acid {4-[2-fluoro-4-(3-phenylacetylthioureido)phenoxy]pyridin-2-yl}amide]
IC50: 100 nM

CN1CC[C@H](N(C)C(=O)Nc2cc(Oc3ccc(NC(=S)NC(=O)Cc4ccc(F)cc4)c(F)c3)ncn2)C1 [Example 281, 3-[6-(3-Fluoro-4-{3-[2-(4-fluorophenyl)acetyl]thioureido}phenoxy)pyrimidin-4-yl]-1-methyl-1-[(3S)-1-methylpyrrolidin-3-yl]urea]
IC50: 28 nM

CCN1CCC(N(C)C(=O)Nc2cc(Oc3ccc(NC(=S)NC(=O)Cc4ccc(F)cc4)cc3F)ncn2)CC1 [Example 285, 1-(1-Ethylpiperidin-4-yl)-3-[6-(2-fluoro-4-{3-[2-(4-fluorophenyl)acetyl]thioureido}phenoxy)pyrimidin-4-yl]-1-methylurea]
IC50: 51 nM

CN(C(=O)Nc1cc(Oc2ccc(NC(=S)NC(=O)Cc3ccc(F)cc3)cc2F)ncn1)C1CCOCC1 [Example 288, 3-[6-(2-Fluoro-4-{3-[2-(4-fluorophenyl)acetyl]thioureido}phenoxy)pyrimidin-4-yl]-1-methyl-1-(tetrahydropyran-4-yl)urea]
IC50: 16 nM

CN1CCC(N(C)C(=O)Nc2cc(Oc3ccc(NC(=S)NC(=O)Cc4ccc(F)cc4)c(F)c3)ccn2)CC1 [Example 289, 3-[4-(3-Fluoro-4-{3-[2-(4-fluorophenyl)acetyl]thioureido}phenoxy)pyridin-2-yl]-1-methyl-1-(1-methylpiperidin-4-yl)urea]
IC50: 67 nM

CN1CCC(N(C)C(=O)Nc2cc(Oc3ccc(NC(=O)NC(=O)Cc4ccc(F)cc4)c(F)c3)ccn2)CC1 [Example 290, 3-[4-(3-Fluoro-4-{3-[2-(4-fluorophenyl)acetyl]ureido}phenoxy)pyridin-2-yl]-1-methyl-1-(1-methylpiperidin-4-yl)urea]
IC50: 130 nM

CC(=O)N1CCC(N(C)C(=O)Nc2cc(Oc3ccc(NC(=S)NC(=O)Cc4ccc(F)cc4)cc3F)ccn2)CC1 [Example 301, 1-(1-Acetylpiperidin-4-yl)-3-[4-(2-fluoro-4-{3-[2-(4-fluorophenyl)acetyl]thioureido}phenoxy)pyridin-2-yl]-1-methylurea]
IC50: 28 nM

CN(C)CCN1CCN(C(=O)Nc2cc(Oc3ccc(NC(=S)NC(=O)Cc4ccccc4)cc3F)ccn2)CC1 [Example 309, 2-{[4-(2-Dimethylaminoethyl)piperazin-1-yl]carbonylamino}-4-(2-fluoro-4-{3-[2-(phenyl)acetyl]thioureido}phenoxy)pyridine]
IC50: 54 nM
